Experimental findings from PubChem BioAssay AID196 (DTP/NCI, 2004) are described below.

This assay deals with BDF1 mice, intracerebral B16 melanoma, median survival T/C. As to the kind of experiment: NCI In Vivo Anticancer Drug Screen. Data for tumor model B16 Melanoma (intracerebral) in B6D2F1 (BDF1) mice. Conditions: endpoint: median survival time, higher = longer survival. On the procedure: The antitumor activity of compounds was measured in mice bearing transplantable tumors. Survival or tumor size were measured and the results are expressed as the measurement made in the treated group (T) divided by the measurement made in the vehicle treated control group (C). The tumor model used in this assay is B16 Melanoma (intracerebral) in B6D2F1 (BDF1) mice

[1] abbreviates: dose: 4.0 mg/kg/injection, schedule: Q01DX009 (ip), vehicle: saline.
Where [2] appears, read: dose: 8.0 mg/kg/injection, schedule: Q01DX009 (ip), vehicle: saline.
Setting [3] is: dose: 32.0 mg/kg/injection, schedule: Q01DX005 (ip), vehicle: saline with Tween-80.
Where [4] appears, read: dose: 4.0 mg/kg/injection, schedule: Q01DX005 (ip), vehicle: suspension in saline.
Setting [5] is: dose: 8.0 mg/kg/injection, schedule: Q01DX005 (ip), vehicle: suspension in saline.

Values joined by “and” are separate entries in the source; they are usually repeats but may differ in a detail not shown here. Identical values can stand only once. Inconclusive results and toxic doses are left out. *1 amine or outer side, *2 acyl side, *3 side chain or, on linkers, in order; H or OH if unused. Where a SMILES comes first, the peptide text is derived from it. Bridges are numbered along the chain shown (N, C = ends). Roman numbers before positions name the chains, in order. [ ]: non-standard residue; d: D form. Actinocin(9to1) = Cc1c2oc3c(C)ccc(C(=O)[*:1])c3nc-2c(C(=O)[*:2])c(N)c1=O; aThr = C[C@H](O)[C@H](N)C(=O)O; NMeV = CN[C@H](C(=O)O)C(C)C; Sar = CNCC(=O)O

As to `Cc1c2oc3c(C)ccc(C(=O)N[C@@H]4C(=O)N[C@H](C(C)C)C(=O)N5CCC[C@H]5C(=O)N(C)CC(=O)N(C)[C@@H](C(C)C)C(=O)O[C@H]4C)c3nc-2c(C(=O)N[C@@H]2C(=O)N[C@H](C(C)C)C(=O)N3CCC[C@H]3C(=O)N(C)CC(=O)N(C)[C@@H](C(C)C)C(=O)O[C@H]2C)c(N)c1=O` (I: [aThr][dV]P[Sar][NMeV] / II: [aThr][dV]P[Sar][NMeV]; ester I:1-I:C, II:1-II:C; linker I:N-II:N via Actinocin(9to1)), the T/C was 118 % of control (dose: 0.02 mg/kg/injection, schedule: Q01DX009 (ip), vehicle: water) and 109 % of control (dose: 0.05 mg/kg/injection, schedule: Q01DX009 (ip), vehicle: water).

Regarding `S=P(N1CC1)(N1CC1)N1CC1`, the T/C is, setting by setting: (dose: 1.0 mg/kg/injection, schedule: Q01DX009 (ip), vehicle: saline) 108 % of control (2×) and 113 % of control; (dose: 2.0 mg/kg/injection, schedule: Q01DX009 (ip), vehicle: saline) 100 % of control; under setting [1], 120 % of control and 122 % of control; under setting [2], 172 % of control.

Take `O=C1C(NCCO)=C(N2CC2)C(=O)C(NCCO)=C1N1CC1`: the T/C (dose: 0.09 mg/kg/injection, schedule: Q01DX009 (ip), vehicle: saline) was 97 % of control; the T/C (dose: 0.19 mg/kg/injection, schedule: Q01DX009 (ip), vehicle: saline) is 103 % of control; the T/C (dose: 0.38 mg/kg/injection, schedule: Q01DX009 (ip), vehicle: saline) is 109 % of control; the T/C (dose: 0.75 mg/kg/injection, schedule: Q01DX009 (ip), vehicle: saline) is 100 % of control.

For `COc1cc(C[C@H]2c3cc(OC)c(OC)cc3CCN2C)c(Oc2cc3c(cc2OC)-c2c(OC)c(OC)cc4c2[C@H](C3)N(C)CC4)cc1OC`, the T/C is 120 % of control and 94 % of control (dose: 50.0 mg/kg/injection, schedule: Q01DX005 (ip), vehicle: Klucel (hydroxypropylcellulose) (HPC)); 108 % of control (dose: 100.0 mg/kg/injection, schedule: Q01DX005 (ip), vehicle: Klucel (hydroxypropylcellulose) (HPC)).

Turning to `C[C@]1(O)CC[C@H]2[C@@H]3CCC4=CC(=O)CC[C@]4(C)[C@@]3(F)[C@@H](O)C[C@@]21C`, the T/C was 115 % of control (dose: 8.0 mg/kg/injection, schedule: Q01DX009 (ip), vehicle: Klucel (hydroxypropylcellulose) (HPC)); 111 % of control (dose: 64.0 mg/kg/injection, schedule: Q01DX009 (ip), vehicle: Klucel (hydroxypropylcellulose) (HPC)); 111 % of control (dose: 128.0 mg/kg/injection, schedule: Q01DX009 (ip), vehicle: Klucel (hydroxypropylcellulose) (HPC)); 95 % of control (dose: 256.0 mg/kg/injection, schedule: Q01DX009 (ip), vehicle: Klucel (hydroxypropylcellulose) (HPC)).

In the case of `CN(CO)c1nc(N(C)CO)nc(N(C)CO)n1`, the T/C is, setting by setting: (dose: 50.0 mg/kg/injection, schedule: Q01DX009 (ip), vehicle: Klucel (hydroxypropylcellulose) (HPC)) 100 % of control and 104 % of control; (dose: 100.0 mg/kg/injection, schedule: Q01DX009 (ip), vehicle: Klucel (hydroxypropylcellulose) (HPC)) 120 % of control and 106 % of control.

As for `CN(C)N=Nc1ccc([N+](=O)[O-])cc1C(N)=O`, the T/C by setting is: (dose: 16.0 mg/kg/injection, schedule: Q01DX005 (ip), vehicle: saline with Tween-80) 100 % of control; under setting [3], 105 % of control; (dose: 64.0 mg/kg/injection, schedule: Q01DX005 (ip), vehicle: saline with Tween-80) 110 % of control; (dose: 128.0 mg/kg/injection, schedule: Q01DX005 (ip), vehicle: saline with Tween-80) 107 % of control.

On to `COc1ccc2c(c1)CCC(c1ccccc1)=C2c1ccc(OCCN2CCCC2)cc1`, for which the T/C is, setting by setting: (dose: 3.0 mg/kg/injection, schedule: Q01DX005 (ip), vehicle: Klucel (hydroxypropylcellulose) (HPC)) 97 % of control; (dose: 6.0 mg/kg/injection, schedule: Q01DX005 (ip), vehicle: Klucel (hydroxypropylcellulose) (HPC)) 97 % of control; (dose: 12.0 mg/kg/injection, schedule: Q01DX005 (ip), vehicle: Klucel (hydroxypropylcellulose) (HPC)) 95 % of control and 105 % of control; (dose: 24.0 mg/kg/injection, schedule: Q01DX005 (ip), vehicle: Klucel (hydroxypropylcellulose) (HPC)) 124 % of control and 96 % of control and 108 % of control; (dose: 48.0 mg/kg/injection, schedule: Q01DX005 (ip), vehicle: Klucel (hydroxypropylcellulose) (HPC)) 92 % of control and 112 % of control; (dose: 96.0 mg/kg/injection, schedule: Q01DX005 (ip), vehicle: Klucel (hydroxypropylcellulose) (HPC)) 100 % of control.

In the case of `COc1cc(NS(C)(=O)=O)ccc1Nc1c2ccccc2nc2c(C)cccc12`, the T/C reads like this: (dose: 5.0 mg/kg/injection, schedule: Q04DX003 (ip), vehicle: Klucel (hydroxypropylcellulose) (HPC)) 88 % of control; (dose: 5.0 mg/kg/injection, schedule: Q04DX003 (ip), vehicle: saline) 108 % of control; (dose: 10.0 mg/kg/injection, schedule: Q04DX003 (ip), vehicle: Klucel (hydroxypropylcellulose) (HPC)) 91 % of control; (dose: 10.0 mg/kg/injection, schedule: Q04DX003 (ip), vehicle: saline) 100 % of control; (dose: 20.0 mg/kg/injection, schedule: Q04DX003 (ip), vehicle: saline) 116 % of control.

`CCN(CC)c1ccc2cc3ccc(=[N+](CC)CC)cc-3oc2c1`: the T/C by setting is: (dose: 4.0 mg/kg/injection, schedule: Q01DX005 (ip), vehicle: saline) 100 % of control; under setting [4], 93 % of control; (dose: 8.0 mg/kg/injection, schedule: Q01DX005 (ip), vehicle: saline) 98 % of control; under setting [5], 113 % of control.

As to `O=[N+]([O-])O.[Ga]`, the T/C is 112 % of control (dose: 32.0 mg/kg/injection, schedule: Q01DX005 (ip), vehicle: saline); 93 % of control and 112 % of control (dose: 64.0 mg/kg/injection, schedule: Q01DX005 (ip), vehicle: saline); 103 % of control (dose: 128.0 mg/kg/injection, schedule: Q01DX005 (ip), vehicle: saline).

Consider `NC(Cc1ccc(N(CCCl)CCCl)cc1)C(=O)O` (centres undefined), for which the T/C (dose: 2.0 mg/kg/injection, schedule: Q01DX009 (ip), vehicle: water) was 120 % of control.

Consider `Cc1ccc2c(c1)Sc1ccc(N=NN(C)C)cc1N2C`, for which the T/C (dose: 6.25 mg/kg/injection, schedule: Q01DX009 (ip), vehicle: other) was 101 % of control; the T/C (dose: 12.5 mg/kg/injection, schedule: Q01DX009 (ip), vehicle: other) was 116 % of control; the T/C (dose: 25.0 mg/kg/injection, schedule: Q01DX009 (ip), vehicle: other) was 98 % of control; the T/C (dose: 50.0 mg/kg/injection, schedule: Q01DX009 (ip), vehicle: other) was 116 % of control; the T/C (dose: 100.0 mg/kg/injection, schedule: Q01DX009 (ip), vehicle: other) is 112 % of control.

`O=NN(CCF)C(=O)N[C@H]1CCCC[C@H]1O`: the T/C (dose: 26.7 mg/kg/injection, schedule: Q01DX001 (ip), vehicle: Klucel (hydroxypropylcellulose) (HPC)) was 151 % of control; the T/C (dose: 40.0 mg/kg/injection, schedule: Q01DX001 (ip), vehicle: Klucel (hydroxypropylcellulose) (HPC)) is 155 % of control; the T/C (dose: 60.0 mg/kg/injection, schedule: Q01DX001 (ip), vehicle: Klucel (hydroxypropylcellulose) (HPC)) is 330 % of control.

For the molecule `Cc1c(N)nc([C@H](CC(N)=O)NC[C@H](N)C(N)=O)nc1C(=O)N[C@H](C(=O)N[C@H](C)[C@@H](O)[C@H](C)C(=O)N[C@H](C(=O)NCCc1nc(-c2nc(C(=O)NCCC[S+](C)C)cs2)cs1)[C@@H](C)O)C(OC1OC(CO)C(O)C(O)C1OC1OC(CO)C(O)C(OC(N)=O)C1O)c1cnc[nH]1` (some centres undefined), the T/C is 110 % of control under setting [1]; 120 % of control under setting [2]; 106 % of control (dose: 16.0 mg/kg/injection, schedule: Q01DX009 (ip), vehicle: saline).

Take `CCC1=C(c2ccc(OC)cc2)CCC(C(=O)O)C1C` (centres undefined): the T/C by setting is: (dose: 4.0 mg/kg/injection, schedule: Q01DX005 (ip), vehicle: saline with Tween-80) 95 % of control; under setting [4], 103 % of control; (dose: 8.0 mg/kg/injection, schedule: Q01DX005 (ip), vehicle: saline with Tween-80) 91 % of control; under setting [5], 95 % of control; (dose: 16.0 mg/kg/injection, schedule: Q01DX005 (ip), vehicle: suspension in saline) 87 % of control; under setting [3], 105 % of control. Also, the T/C (dose: 32.0 mg/kg/injection, schedule: Q01DX005 (ip), vehicle: suspension in saline) was 95 % of control.
